In ChEMBL document CHEMBL1201861, “Genomics of Drug Sensitity in Cancer screening data, Wellcome Trust Sanger Institute”:

What was measured:
Experiment in all cases: cells
SCC-15 = format: functional, cell-based, Homo sapiens; settings: Homo sapiens, SCC-15;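 further: growth inhibition of SCC-15 cells, read out with a cell viability assay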
Description: SANGER: Inhibition of human SCC-15 cell growth in a cell viability assay.

SK-MEL-1 = format: functional, cell-based, Homo sapiens; settings: Homo sapiens, SK-MEL-1;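 further: growth inhibition of human SK-MEL-1 cells, read out by a cell viability assay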
Description: SANGER: Inhibition of human SK-MEL-1 cell growth in a cell viability assay.

HL-60 = format: functional, cell-based, Homo sapiens; settings: Homo sapiens, HL-60;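 further: growth inhibition of human HL-60 cells, read out with a cell viability assay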
Description: SANGER: Inhibition of human HL-60 cell growth in a cell viability assay.

ETK-1 = format: functional, cell-based, Homo sapiens; settings: Homo sapiens, ETK-1;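 further: growth inhibition of human ETK-1 cells, read out with a cell viability assay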
Description: SANGER: Inhibition of human ETK-1 cell growth in a cell viability assay.

DB = format: functional, cell-based, Homo sapiens; settings: Homo sapiens, DB
Description: SANGER: Inhibition of human DB cell growth in a cell viability assay.

MSTO-211H = format: functional, cell-based, Homo sapiens; settings: Homo sapiens, MSTO-211H
Description: SANGER: Inhibition of human MSTO-211H cell growth in a cell viability assay.

GI-ME-N = format: functional, cell-based, Homo sapiens; settings: Homo sapiens, GI-ME-N;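 further: growth inhibition of human GI-ME-N cells, read out with a cell viability assay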
Description: SANGER: Inhibition of human GI-ME-N cell growth in a cell viability assay.

IST-MEL1 = format: functional, cell-based, Homo sapiens; settings: Homo sapiens, IST-MEL1;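 further: growth inhibition of the cell line, read out with a cell viability assay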
Description: SANGER: Inhibition of human IST-MEL1 cell growth in a cell viability assay.

TGBC24TKB = format: functional, cell-based; settings: Homo sapiens;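 further: growth inhibition of human TGBC24TKB cells, read out with a cell viability assay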
Description: SANGER: Inhibition of human TGBC24TKB cell growth in a cell viability assay.

TGBC1TKB = format: functional, cell-based, Homo sapiens; settings: Homo sapiens, TGBC1TKB;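 further: growth inhibition of TGBC1TKB cells, read out by a cell viability assay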
Description: SANGER: Inhibition of human TGBC1TKB cell growth in a cell viability assay.

LB831-BLC = format: functional, cell-based, Homo sapiens; settings: Homo sapiens, LB831-BLC;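 further: growth inhibition of LB831-BLC cells, read out with a cell viability assay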
Description: SANGER: Inhibition of human LB831-BLC cell growth in a cell viability assay.

no-10 = format: functional, cell-based, Homo sapiens; settings: Homo sapiens;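 further: growth inhibition of no-10 cells, read out with a cell viability assay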
Description: SANGER: Inhibition of human no-10 cell growth in a cell viability assay.

LU-139 = format: functional, cell-based, Homo sapiens; settings: Homo sapiens, LU-139
Description: SANGER: Inhibition of human LU-139 cell growth in a cell viability assay.

EW-3 = format: functional, cell-based, Homo sapiens; settings: Homo sapiens, EW-3;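 further: cell viability assay read-out, IC50 reflects inhibition of growth of the EW-3 cells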
Description: SANGER: Inhibition of human EW-3 cell growth in a cell viability assay.

MN-60 = format: functional, cell-based, Homo sapiens; settings: Homo sapiens, MN-60;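 further: growth inhibition of the MN-60 cell line, determined with a cell viability assay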
Description: SANGER: Inhibition of human MN-60 cell growth in a cell viability assay.

K562 = format: functional, cell-based, Homo sapiens; settings: Homo sapiens, K562
Description: SANGER: Inhibition of human K-562 cell growth in a cell viability assay.

KP-N-YS = format: functional, cell-based, Homo sapiens; settings: Homo sapiens, KP-N-YS;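 further: cell viability assay measuring inhibition of cell line growth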
Description: SANGER: Inhibition of human KP-N-YS cell growth in a cell viability assay.

NCI-H1650 = format: functional, cell-based, Homo sapiens; settings: Homo sapiens, NCI-H1650;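 further: growth inhibition of human NCI-H1650 cells measured by a cell viability assay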
Description: SANGER: Inhibition of human NCI-H1650 cell growth in a cell viability assay.

KALS-1 = format: functional, cell-based, Homo sapiens; settings: Homo sapiens, KALS-1; read-out: IC50;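 further: growth inhibition of KALS-1 cells, determined with a cell viability assay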
Description: SANGER: Inhibition of human KALS-1 cell growth in a cell viability assay.

KU812 cell line = format: functional, cell-based, Homo sapiens; settings: Homo sapiens, KU812;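 further: growth inhibition of KU812 cells, read out with a cell viability assay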
Description: SANGER: Inhibition of human KU812 cell growth in a cell viability assay.

ES4 = format: functional, cell-based, Homo sapiens; settings: Homo sapiens, ES4;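 further: growth inhibition of human ES4 cells, read out by a cell viability assay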
Description: SANGER: Inhibition of human ES4 cell growth in a cell viability assay.

TE-11 = format: functional, cell-based; settings: Homo sapiens;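 further: growth inhibition of human TE-11 cells, read out by a cell viability assay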
Description: SANGER: Inhibition of human TE-11 cell growth in a cell viability assay.

RPMI-8866 = format: functional, cell-based, Homo sapiens; settings: Homo sapiens, RPMI-8866
Description: SANGER: Inhibition of human RPMI-8866 cell growth in a cell viability assay.

KS-1 = format: functional, cell-based; settings: Homo sapiens;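 further: growth inhibition of KS-1 cells, read out with a cell viability assay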
Description: SANGER: Inhibition of human KS-1 cell growth in a cell viability assay.

NCI-H446 = format: functional, cell-based, Homo sapiens; settings: Homo sapiens, NCI-H446;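 further: growth inhibition of NCI-H446 cells determined by a cell viability assay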
Description: SANGER: Inhibition of human NCI-H446 cell growth in a cell viability assay.

NOS-1 = format: functional, cell-based, Homo sapiens; settings: Homo sapiens, NOS-1;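 further: growth inhibition of the human NOS-1 cell line, read out with a cell viability assay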
Description: SANGER: Inhibition of human NOS-1 cell growth in a cell viability assay.

697 = format: functional, cell-based, Homo sapiens; settings: Homo sapiens
Description: SANGER: Inhibition of human 697 cell growth in a cell viability assay.

SF-539 = format: functional, cell-based, Homo sapiens; settings: Homo sapiens, SF-539;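 further: Read-out is a cell viability assay, with IC50 reflecting inhibition of cell growth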
Description: SANGER: Inhibition of human SF539 cell growth in a cell viability assay.

HT-144 = format: functional, cell-based, Homo sapiens; settings: Homo sapiens, HT-144
Description: SANGER: Inhibition of human HT-144 cell growth in a cell viability assay.

TGW = format: functional, cell-based, Homo sapiens; settings: Homo sapiens, TGW;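 further: growth inhibition of human TGW cells, read out with a cell viability assay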
Description: SANGER: Inhibition of human TGW cell growth in a cell viability assay.

GOTO = format: functional, cell-based, Homo sapiens; settings: Homo sapiens, GOTO;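 further: growth inhibition of GOTO cells, read out by a cell viability assay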
Description: SANGER: Inhibition of human GOTO cell growth in a cell viability assay.

RXF 393 = format: functional, cell-based, Homo sapiens; settings: Homo sapiens, RXF 393;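 further: growth inhibition of human RXF 393 cells, read out with a cell viability assay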
Description: SANGER: Inhibition of human RXF393 cell growth in a cell viability assay.

KNS-42 = format: functional, cell-based; settings: Homo sapiens;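 further: growth inhibition of KNS-42 cells, read out with a cell viability assay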
Description: SANGER: Inhibition of human KNS-42 cell growth in a cell viability assay.

KGN = format: functional, cell-based, Homo sapiens; settings: Homo sapiens, KGN;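 further: growth inhibition of KGN cells, read out with a cell viability assay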
Description: SANGER: Inhibition of human KGN cell growth in a cell viability assay.

VA-ES-BJ = format: functional, cell-based, Homo sapiens; settings: Homo sapiens, VA-ES-BJ;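 further: growth inhibition of the VA-ES-BJ cell line, read out by a cell viability assay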
Description: SANGER: Inhibition of human VA-ES-BJ cell growth in a cell viability assay.

NCI-H2126 = format: functional, cell-based, Homo sapiens; settings: Homo sapiens, NCI-H2126;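 further: growth inhibition of the cancer cell line, determined with a cell viability readout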
Description: SANGER: Inhibition of human NCI-H2126 cell growth in a cell viability assay.

JVM-2 = format: functional, cell-based, Homo sapiens; settings: Homo sapiens, JVM-2;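 further: growth inhibition of JVM-2 cells determined by a cell viability assay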
Description: SANGER: Inhibition of human JVM-2 cell growth in a cell viability assay.

KURAMOCHI = format: functional, cell-based, Homo sapiens; settings: Homo sapiens, KURAMOCHI;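 further: growth inhibition of KURAMOCHI cells, read out with a cell viability assay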
Description: SANGER: Inhibition of human KURAMOCHI cell growth in a cell viability assay.

EKVX = format: functional, cell-based, Homo sapiens; settings: Homo sapiens, EKVX;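 further: growth inhibition of human EKVX cells, read out with a cell viability assay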
Description: SANGER: Inhibition of human EKVX cell growth in a cell viability assay.

EM-2 = format: functional, cell-based, Homo sapiens; settings: Homo sapiens, EM-2;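 further: growth inhibition of EM-2 cells, read out with a cell viability assay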
Description: SANGER: Inhibition of human EM-2 cell growth in a cell viability assay.

ONS-76 = format: functional, cell-based, Homo sapiens; settings: Homo sapiens, ONS-76;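 further: growth inhibition of human ONS-76 cells, read out with a cell viability assay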
Description: SANGER: Inhibition of human ONS-76 cell growth in a cell viability assay.

BB49-HNC = format: functional, cell-based, Homo sapiens; settings: Homo sapiens, BB49-HNC;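 further: cell viability assay read-out, reported as inhibition of BB49-HNC cell growth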
Description: SANGER: Inhibition of human BB49-HNC cell growth in a cell viability assay.

CTB-1 = format: functional, cell-based, Homo sapiens; settings: Homo sapiens, CTB-1
Description: SANGER: Inhibition of human CTB-1 cell growth in a cell viability assay.

SW982 = format: functional, cell-based; settings: Homo sapiens;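 further: growth inhibition of SW982 cells, read out with a cell viability assay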
Description: SANGER: Inhibition of human SW982 cell growth in a cell viability assay.

HCC2218 = format: functional, cell-based, Homo sapiens; settings: Homo sapiens, HCC2218;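 further: cell viability assay read-out, with IC50 given as the concentration that inhibits growth of the cell line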
Description: SANGER: Inhibition of human HCC2218 cell growth in a cell viability assay.

ES5 = format: functional, cell-based, Homo sapiens; settings: Homo sapiens, ES5;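 further: growth inhibition of human ES5 cells, read out by a cell viability assay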
Description: SANGER: Inhibition of human ES5 cell growth in a cell viability assay.

MZ1-PC = format: functional, cell-based, Homo sapiens; settings: Homo sapiens, MZ1-PC;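 further: cell viability assay measuring growth inhibition of human MZ1-PC cells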
Description: SANGER: Inhibition of human MZ1-PC cell growth in a cell viability assay.

SH-4 = format: functional, cell-based; settings: Homo sapiens;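 further: growth inhibition of SH-4 cells, read out with a cell viability assay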
Description: SANGER: Inhibition of human SH-4 cell growth in a cell viability assay.

Mo = format: functional, cell-based, Homo sapiens; settings: Homo sapiens, Mo
Description: SANGER: Inhibition of human Mo-T cell growth in a cell viability assay.

RCC10RGB = format: functional, cell-based, Homo sapiens; settings: Homo sapiens, RCC10RGB;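 further: growth inhibition of human RCC10RGB cells, read out by a cell viability assay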
Description: SANGER: Inhibition of human RCC10RGB cell growth in a cell viability assay.

MC116 = format: functional, cell-based, Homo sapiens; settings: Homo sapiens, MC116;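 further: growth inhibition of MC116 cells, read out with a cell viability assay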
Description: SANGER: Inhibition of human MC116 cell growth in a cell viability assay.

SMILES: CC1(C)CCC(c2ccc(Cl)cc2)=C(CN2CCN(c3ccc(C(=O)NS(=O)(=O)c4ccc(N[C@H](CCN5CCOCC5)CSc5ccccc5)c(S(=O)(=O)C(F)(F)F)c4)cc3)CC2)C1 [NAVITOCLAX]
- IC50 (SCC-15): > 2 µM
- IC50 (SK-MEL-1): > 2 µM
- IC50 (HL-60): 0.0291 µM
- IC50 (ETK-1): > 2 µM
- IC50 (DB): 0.571 µM
- IC50 (MSTO-211H): > 2 µM
- IC50 (GI-ME-N): > 2 µM
- IC50 (IST-MEL1): > 2 µM
- IC50 (TGBC24TKB): 0.458 µM
- IC50 (TGBC1TKB): 1.14 µM
- IC50 (LB831-BLC): > 2 µM
- IC50 (no-10): > 2 µM
- IC50 (LU-139): 0.205 µM
- IC50 (EW-3): 0.0805 µM
- IC50 (MN-60): > 2 µM
- IC50 (K562): > 2 µM
- IC50 (KP-N-YS): 1.16 µM
- IC50 (NCI-H1650): > 2 µM
- IC50 (KALS-1): > 2 µM
- IC50 (KU812 cell line): > 2 µM
- IC50 (ES4): 1.35 µM
- IC50 (TE-11): > 2 µM
- IC50 (RPMI-8866): > 2 µM
- IC50 (KS-1): > 2 µM
- IC50 (NCI-H446): > 2 µM
- IC50 (NOS-1): > 2 µM
- IC50 697: 0.108 µM
- IC50 (SF-539): > 2 µM
- IC50 (HT-144): > 2 µM
- IC50 (TGW): 0.0463 µM
- IC50 (GOTO): > 2 µM
- IC50 (RXF 393): > 2 µM
- IC50 (KNS-42): > 2 µM
- IC50 (KGN): > 2 µM
- IC50 (VA-ES-BJ): > 2 µM
- IC50 (NCI-H2126): > 2 µM
- IC50 (JVM-2): > 2 µM
- IC50 (KURAMOCHI): > 2 µM
- IC50 (EKVX): > 2 µM
- IC50 (EM-2): 0.199 µM
- IC50 (ONS-76): > 2 µM
- IC50 (BB49-HNC): > 2 µM
- IC50 (CTB-1): > 2 µM
- IC50 (SW982): > 2 µM
- IC50 (HCC2218): > 2 µM
- IC50 (ES5): > 2 µM
- IC50 (MZ1-PC): > 2 µM
- IC50 (SH-4): > 2 µM
- IC50 (Mo): > 2 µM
- IC50 (RCC10RGB): > 2 µM
- IC50 (MC116): > 2 µM

SMILES: Cc1ccc(-n2nc(C(C)(C)C)cc2NC(=O)Nc2ccc(OCCN3CCOCC3)c3ccccc23)cc1 [DORAMAPIMOD]
- IC50 (SCC-15): > 10 µM
- IC50 (SK-MEL-1): > 10 µM
- IC50 (HL-60): > 10 µM
- IC50 (ETK-1): > 10 µM
- IC50 (DB): > 10 µM
- IC50 (MSTO-211H): > 10 µM
- IC50 (GI-ME-N): > 10 µM
- IC50 (IST-MEL1): > 10 µM
- IC50 (TGBC24TKB): > 10 µM
- IC50 (TGBC1TKB): > 10 µM
- IC50 (LB831-BLC): > 10 µM
- IC50 (no-10): > 10 µM
- IC50 (LU-139): > 10 µM
- IC50 (EW-3): > 10 µM
- IC50 (MN-60): > 10 µM
- IC50 (K562): > 10 µM
- IC50 (KP-N-YS): > 10 µM
- IC50 (NCI-H1650): > 10 µM
- IC50 (KALS-1): > 10 µM
- IC50 (KU812 cell line): > 10 µM
- IC50 (ES4): > 10 µM
- IC50 (TE-11): > 10 µM
- IC50 (RPMI-8866): > 10 µM
- IC50 (KS-1): > 10 µM
- IC50 (NCI-H446): > 10 µM
- IC50 (NOS-1): > 10 µM
- IC50 697: > 10 µM
- IC50 (SF-539): > 10 µM
- IC50 (HT-144): > 10 µM
- IC50 (TGW): > 10 µM
- IC50 (GOTO): 6.39 µM
- IC50 (RXF 393): > 10 µM
- IC50 (KNS-42): > 10 µM
- IC50 (KGN): > 10 µM
- IC50 (VA-ES-BJ): > 10 µM
- IC50 (NCI-H2126): > 10 µM
- IC50 (JVM-2): > 10 µM
- IC50 (KURAMOCHI): > 10 µM
- IC50 (EKVX): > 10 µM
- IC50 (EM-2): > 10 µM
- IC50 (ONS-76): > 10 µM
- IC50 (BB49-HNC): > 10 µM
- IC50 (CTB-1): > 10 µM
- IC50 (SW982): > 10 µM
- IC50 (HCC2218): > 10 µM
- IC50 (ES5): > 10 µM
- IC50 (MZ1-PC): > 10 µM
- IC50 (SH-4): > 10 µM
- IC50 (Mo): > 10 µM
- IC50 (RCC10RGB): > 10 µM
- IC50 (MC116): > 10 µM
